{"source": "patent US20230110113A1", "about": "“FGFR TYROSINE KINASE INHIBITORS FOR THE TREATMENT OF HIGH-RISK NON-MUSCLE INVASIVE BLADDER CANCER” (Janssen Pharmaceutica NV, priority 2020, published 2023)", "key": {"[1]": {"test_system": "UM-UC-1 bladder cancer cell line (WT)", "conditions": "MTT"}, "[2]": {"test_system": "EJ28 bladder cancer cell line (FGFR status unknown)", "conditions": "EJ28, FGFR3 status unknown"}, "[3]": {"test_system": "T24 bladder cancer cell line (WT)", "conditions": "T24, FGFR3 WT"}}}
{"compound": "COc1cc(OC)cc(N(CCNC(C)C)c2ccc3ncc(-c4cnn(C)c4)nc3c2)c1", "note": "[erdafitinib, N-(3,5-dimethoxyphenyl)-N′-(1-methylethyl)-N-[3-(1-methyl-1H-pyrazol-4-yl)quinoxalin-6-yl]ethane-1,2-diamine]", "values": [{"measurement": "Cell viability max effect", "setting": "[1]", "result": 80, "unit": "%"}, {"measurement": "Sensitivity of cell line to erdafitinib (in words)", "setting": "[2]", "result": "not sensitive"}, {"measurement": "Sensitivity of cell line to erdafitinib (in words)", "setting": "[3]", "result": "not sensitive"}]}
